SMILES strings stand for the structures.

The values below come from US20250136578A1 (Kolm Therapeutics Inc., priority 2023, published 2025).

For the test, the target named is AR / CBP ternary complex (Homo sapiens, UniProt P10275+Q92793). In words: Ternary complex formation assay (sandwich ELISA, AR capture, CBP antibody detection) in VCaP cell lysates. Format: cell-based. To be noted: treated 1.5 hours, rabbit CBP or p300 antibody detection, average, read-out: Average Ternary Complex. How it is done:
Black MaxiSorp plates: coat with 50 μL of mouse 1/50 diluted AR antibody (Monoclonal Antibody (AR 441 from Thermo Fisher); diluted in phosphate buffered saline (PBS). Spin the liquid to the bottom of the wells, if necessary. Incubate overnight at 4° C. Next day, wash 3 times with 200 μL of TBST. Block with 200 μL of blocking buffer (5% BSA in TBST) at room temperature for 2 hours (BSA: A4503 or A2153 from Sigma). Wash plates 3 times with TBST. Plates are ready for lysates Preparation of dimerizer treated lysates
Culture cells in 96 wells at 50K VCaP cells/well for at least 3 days. Plate in 5% Omega charcoal stripped FBS in total volume of 200 uL. Treat with bifunctional for 1.5 hours by adding 1 μL of 200× stock in DMSO. Aspirate media/compound. Add and pipet-to-mix 70 μL of 1× AlphaLisa Lysis Buffer to each well (Perkin Elmer, AlphaLISA SureFire Ultra, diluted in water). Pipet up and down when adding lysis buffer to disrupt cells. Let lysis proceed for 30 min at 4° C.
Incubate for 1 hour at room temperature. Flick out the lysates. Wash 3 times with TBST. Add 75 μL of rabbit CBP or p300 antibody to each well (diluted 1:5000 in blocking buffer (5% BSA in TBST). CBP antibody: (D6C5) Rabbit mAb #7389; p300 antibody: (D8Z4E) Rabbit mAb #86377. Incubate overnight at 4° C. Wash 3 times with 300 uL TBST, each time on shaker for 5-10 min. Prepare goat anti-rabbit antibody conjugated to HRP (1/100K dilution in blocking buffer) Invitrogen Catalog number: 32260. Add 75 μL of HRP-conjugated goat anti-rabbit antibody. Incubate at room temperature for 1 hour. Flick out the HRP-antibody mixture. Wash 7-8 times with TBST, each time on shaker for 10 min. Later washes try to overflow the wells so that no residual HRP remains bound to the sides of the well. Prepare and add 75 uL/well of QuantaRed Enhance Chemifluorescent HRP Substrate solution. Immediately read fluorescence on BMG ClarioStar (ex: 570/em 585), and repeat the read in 5 minutes and 15 minutes.

Sequence of AR / CBP ternary complex (P10275 whole entry): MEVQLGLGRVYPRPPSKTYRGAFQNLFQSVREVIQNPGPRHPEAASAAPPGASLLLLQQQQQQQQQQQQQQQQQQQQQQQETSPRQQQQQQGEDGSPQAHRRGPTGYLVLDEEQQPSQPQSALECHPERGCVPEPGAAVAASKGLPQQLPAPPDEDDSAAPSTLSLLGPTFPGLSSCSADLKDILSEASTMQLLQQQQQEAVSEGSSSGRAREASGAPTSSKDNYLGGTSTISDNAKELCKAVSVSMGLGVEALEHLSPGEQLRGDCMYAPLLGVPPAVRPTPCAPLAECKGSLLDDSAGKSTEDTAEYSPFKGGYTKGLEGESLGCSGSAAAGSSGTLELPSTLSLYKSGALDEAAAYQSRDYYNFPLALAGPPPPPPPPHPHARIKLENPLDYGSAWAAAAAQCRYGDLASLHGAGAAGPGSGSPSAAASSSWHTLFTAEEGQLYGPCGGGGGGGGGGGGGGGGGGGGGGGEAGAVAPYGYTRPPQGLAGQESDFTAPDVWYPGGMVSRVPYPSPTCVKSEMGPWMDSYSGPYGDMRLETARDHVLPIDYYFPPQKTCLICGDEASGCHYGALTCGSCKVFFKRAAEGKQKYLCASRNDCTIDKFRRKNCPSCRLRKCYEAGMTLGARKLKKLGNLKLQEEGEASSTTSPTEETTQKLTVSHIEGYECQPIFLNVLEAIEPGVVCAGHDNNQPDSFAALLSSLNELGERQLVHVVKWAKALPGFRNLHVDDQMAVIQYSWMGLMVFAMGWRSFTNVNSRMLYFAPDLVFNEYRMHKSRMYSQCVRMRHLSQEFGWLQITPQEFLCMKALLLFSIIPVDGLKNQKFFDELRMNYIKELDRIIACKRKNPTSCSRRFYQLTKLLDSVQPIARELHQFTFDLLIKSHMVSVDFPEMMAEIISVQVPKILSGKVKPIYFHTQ
Sequence of AR / CBP ternary complex (Q92793 2-2442): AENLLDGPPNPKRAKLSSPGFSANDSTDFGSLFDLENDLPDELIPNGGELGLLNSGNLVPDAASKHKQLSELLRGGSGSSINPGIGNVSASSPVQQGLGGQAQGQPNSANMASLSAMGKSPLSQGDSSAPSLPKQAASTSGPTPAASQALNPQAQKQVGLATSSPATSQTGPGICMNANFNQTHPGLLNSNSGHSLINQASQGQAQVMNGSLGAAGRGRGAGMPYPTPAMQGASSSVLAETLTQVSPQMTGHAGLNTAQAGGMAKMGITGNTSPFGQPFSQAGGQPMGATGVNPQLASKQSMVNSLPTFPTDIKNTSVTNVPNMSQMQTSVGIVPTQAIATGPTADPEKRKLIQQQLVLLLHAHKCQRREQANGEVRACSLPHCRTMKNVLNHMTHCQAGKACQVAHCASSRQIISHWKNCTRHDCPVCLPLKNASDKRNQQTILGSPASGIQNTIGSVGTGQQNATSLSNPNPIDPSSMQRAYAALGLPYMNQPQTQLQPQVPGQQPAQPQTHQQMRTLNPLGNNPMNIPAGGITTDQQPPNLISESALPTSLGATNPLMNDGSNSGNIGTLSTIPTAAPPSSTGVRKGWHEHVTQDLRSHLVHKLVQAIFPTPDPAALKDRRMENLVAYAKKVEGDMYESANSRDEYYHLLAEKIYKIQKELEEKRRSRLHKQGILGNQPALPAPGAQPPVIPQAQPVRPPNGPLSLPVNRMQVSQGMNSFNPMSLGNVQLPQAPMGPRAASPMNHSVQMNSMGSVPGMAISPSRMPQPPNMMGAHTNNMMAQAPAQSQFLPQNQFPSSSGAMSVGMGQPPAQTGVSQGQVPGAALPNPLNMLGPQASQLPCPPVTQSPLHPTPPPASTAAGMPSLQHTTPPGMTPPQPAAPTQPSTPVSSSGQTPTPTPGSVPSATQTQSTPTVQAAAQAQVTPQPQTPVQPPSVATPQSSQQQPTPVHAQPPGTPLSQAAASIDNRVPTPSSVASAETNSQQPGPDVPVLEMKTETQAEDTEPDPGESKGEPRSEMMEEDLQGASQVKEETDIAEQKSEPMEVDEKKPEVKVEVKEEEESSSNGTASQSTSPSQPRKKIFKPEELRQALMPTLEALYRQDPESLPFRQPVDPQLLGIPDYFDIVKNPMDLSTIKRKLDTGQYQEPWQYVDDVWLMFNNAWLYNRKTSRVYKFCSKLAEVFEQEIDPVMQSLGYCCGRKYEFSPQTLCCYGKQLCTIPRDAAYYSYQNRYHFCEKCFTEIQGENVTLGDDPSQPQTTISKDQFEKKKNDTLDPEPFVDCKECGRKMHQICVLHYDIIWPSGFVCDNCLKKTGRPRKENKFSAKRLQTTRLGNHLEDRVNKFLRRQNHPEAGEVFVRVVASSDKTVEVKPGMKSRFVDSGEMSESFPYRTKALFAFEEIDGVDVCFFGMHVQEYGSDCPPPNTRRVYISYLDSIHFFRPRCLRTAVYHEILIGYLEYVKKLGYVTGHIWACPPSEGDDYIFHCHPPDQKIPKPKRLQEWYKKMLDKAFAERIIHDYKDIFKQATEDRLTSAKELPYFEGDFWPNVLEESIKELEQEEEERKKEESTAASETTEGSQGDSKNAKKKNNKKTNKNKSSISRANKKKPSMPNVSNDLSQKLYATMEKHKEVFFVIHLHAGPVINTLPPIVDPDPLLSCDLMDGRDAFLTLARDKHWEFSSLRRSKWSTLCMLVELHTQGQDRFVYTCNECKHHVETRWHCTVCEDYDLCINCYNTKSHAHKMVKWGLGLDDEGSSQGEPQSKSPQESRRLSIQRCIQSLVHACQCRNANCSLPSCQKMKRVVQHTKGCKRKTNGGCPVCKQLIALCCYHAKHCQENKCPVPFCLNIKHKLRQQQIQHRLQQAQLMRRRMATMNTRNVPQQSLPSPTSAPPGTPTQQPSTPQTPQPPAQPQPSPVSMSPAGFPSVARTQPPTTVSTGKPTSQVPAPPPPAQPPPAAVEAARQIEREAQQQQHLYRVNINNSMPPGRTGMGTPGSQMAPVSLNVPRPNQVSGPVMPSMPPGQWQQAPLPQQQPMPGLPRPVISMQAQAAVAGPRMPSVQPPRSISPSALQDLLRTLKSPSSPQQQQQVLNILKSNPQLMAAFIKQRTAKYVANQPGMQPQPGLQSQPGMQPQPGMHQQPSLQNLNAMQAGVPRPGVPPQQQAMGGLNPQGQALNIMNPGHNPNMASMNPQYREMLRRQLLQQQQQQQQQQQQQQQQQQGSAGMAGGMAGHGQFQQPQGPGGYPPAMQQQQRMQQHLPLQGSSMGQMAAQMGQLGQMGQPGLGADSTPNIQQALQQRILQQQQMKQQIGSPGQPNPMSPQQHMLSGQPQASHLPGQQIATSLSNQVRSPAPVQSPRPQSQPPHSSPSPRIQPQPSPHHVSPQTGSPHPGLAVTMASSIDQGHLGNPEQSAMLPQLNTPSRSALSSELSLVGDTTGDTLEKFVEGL

Take `CC(=O)N1CCc2c(c(N3CCCc4cc(-c5cnn(C)c5)c(C(F)F)cc43)nn2C2CCN(CC3CCN(c4nnc(C(=O)N[C@H]5CC[C@H](Oc6ccc(C#N)c(Cl)c6)CC5)s4)CC3)CC2)C1` [Compound 225]: the EC50 is < 1 nM.

Regarding `CC(=O)N1CCc2c(c(N3CCCc4cc(-c5cnn(C)c5)c(C(F)F)cc43)nn2C2CCN(C3CCC4(C3)CN(c3ccc(C(=O)N[C@H]5CC[C@H](Oc6ccc(C#N)c(Cl)c6)CC5)nn3)C4)CC2)C1` (stereo partly shown) [Compound 227, 6-[6-[4-[5-acetyl-3-[7-(difluoromethyl)-6-(1-methylpyrazol-4-yl)-3,4-dihydro-2H-quinolin-1-yl]-6,7-dihydro-4H-pyrazolo[4,3-c]pyridin-1-yl]-1-piperidyl]-2-azaspiro[3.4]octan-2-yl]-N-[4-(3-chloro-4-cyano-phenoxy)cyclohexyl]pyridazine-3-carboxamide], the EC50 is < 1 nM. As for `CC(=O)N1CCc2c(c(N3CCCc4cc(-c5cscn5)c(C(F)F)cc43)nn2C2CCN([C@H]3CCCN(c4ccc(C(=O)N[C@H]5CC[C@H](Oc6ccc(C#N)c(Cl)c6)CC5)nn4)C3)CC2)C1` [Compound 260, 6-[(3S)-3-[4-[5-acetyl-3-[7-(difluoromethyl)-6-thiazol-4-yl-3,4-dihydro-2H-quinolin-1-yl]-6,7-dihydro-4H-pyrazolo[4,3-c]pyridin-1-yl]-1-piperidyl]-1-piperidyl]-N-[4-(3-chloro-4-cyano-phenoxy)cyclohexyl]pyridazine-3-carboxamide], the EC50 fell in the range of 1 to 10 nM. Then `CC(=O)N1CCc2c(c(N3CCCc4cc(-c5cnn(C)c5)c(C(F)F)cc43)nn2C2CCN(CC3CCN(c4ncc(C(=O)N[C@H]5CC[C@H](Oc6ccc(C#N)c(Cl)c6)CC5)cn4)CC3)CC2)C1` [Compound 17, 2-[4-[[4-[5-acetyl-3-[7-(difluoromethyl)-6-(1-methylpyrazol-4-yl)-3,4-dihydro-2H-quinolin-1-yl]-6,7-dihydro-4H-pyrazolo[4,3-c]pyridin-1-yl]-1-piperidyl]methyl]-1-piperidyl]-N-[4-(3-chloro-4-cyano-phenoxy)cyclohexyl]pyrimidine-5-carboxamide], with < 1 nM.

Take `CC(=O)N1CCc2c(c(N3CCCc4cc(-c5cnn(C)c5)c(C(F)F)cc43)nn2[C@H]2CC[C@@]3(CCCN(C4CN(c5ccc(C(=O)N[C@H]6CC[C@H](Oc7ccc(C#N)c(Cl)c7)CC6)nn5)C4)C3)CC2)C1` [Compound 269, 6-[3-[9-[5-acetyl-3-[7-(difluoromethyl)-6-(1-methylpyrazol-4-yl)-3,4-dihydro-2H-quinolin-1-yl]-6,7-dihydro-4Hpyrazolo[4,3-c]pyridin-1-yl]-2-azaspiro[5.5]undecan-2-yl]azetidin-1-yl]-N-[4-(3-chloro-4-cyanophenoxy)cyclohexyl]pyridazine-3-carboxamide]: the EC50 was < 1 nM. Then `CC(=O)N1CCc2c(c(N3CCCc4cc(-c5cnn(C)c5)c(C(F)F)cc43)nn2C2CCN(C3CC4(CCN(c5ccc(C(=O)N[C@H]6CC[C@H](Oc7ccc(C#N)c(Cl)c7)CC6)nn5)C4)C3)CC2)C1` (stereo partly shown) [Compound 228, 6-[2-[4-[5-acetyl-3-[7-(difluoromethyl)-6-(1-methylpyrazol-4-yl)-3,4-dihydro-2H-quinolin-1-yl]-6,7-dihydro-4H-pyrazolo[4,3-c]pyridin-1-yl]-1-piperidyl]-6-azaspiro [3.4]octan-6-yl]-N-[4-(3-chloro-4-cyano-phenoxy)cyclohexyl] pyridazine-3-carboxamide], with < 1 nM; and `CC(=O)N1CCc2c(c(N3CCCc4cc(-c5cnn(C)c5)c(C(F)F)cc43)nn2[C@H]2CC[C@@]3(CCN(c4ccc(C(=O)N[C@H]5CC[C@H](Oc6ccc(C#N)c(Cl)c6)CC5)nn4)C3)CC2)C1` [Compound 265, 6-[8-[5-acetyl-3-[7-(difluoromethyl)-6-(1-methylpyrazol-4-yl)-3,4-dihydro-2H-quinolin-1-yl]-6,7-dihydro-4H-pyrazolo[4,3-c]pyridin-1-yl]-2-azaspiro[4.5]decan-2-yl]-N-[4-(3-chloro-4-cyano-phenoxy)cyclohexyl]pyridazine-3-carboxamide], with < 1 nM.
